# Assay results published in US8080524B2, “Agent for slowing hair loss and/or stimulating hair growth” (Centre National de la Recherche Scientifique (CNRS), priority 2005, dated 2011).
# Residues, ends and D or L forms follow the SMILES beside them.
# Assays:
# [1] = system: cells in mitosis (Ki67) in epithelial sheath of human hair explants; assay: Anti-Ki67 immunolabelling of cells in mitosis along the epithelial sheath of hairs; format: cell-based; conditions: for increase in number of cells in mitosis compared to control hair: D8 of treatment
# Procedure: (§1) Study of the stimulating activity of tetrapeptide AcSDKP on the growth of isolated hairs maintained in a state of ex vivo survival. This study was conducted on 66 human hair explants obtained from scalp-plasty.
# (§2) Hairs comprised of hair follicles were isolated by micro dissection and individually placed in wells (96-well culture plate) and maintained in survival for 15 days under conventional tissue culturing conditions (37° C., 5% CO2) in Williams medium.
# (§3) Tetrapeptide AcSDKP added to the culture medium was tested at three concentrations: 10^−4 M, 10^−7 M and 10^−10 M. Minoxidil (2/1 diamino 6-piperidinopyrimidine 3-oxide) at a concentration of 10^−5 M was used as a positive control.
# (§4) On D8 and D15 of treatment, six hairs from each batch (untreated control, Minoxidil, +AcSDKP 10^−4 M, +AcSDKP 10^−7 M, +AcSDKP 10^−10 M) were removed and prepared for histological study.
# (§5) Three explants from each batch were fixed in ordinary Bouin and the three other hairs were frozen and stored at −80° C.
# In addition to measurements of the length of each hair, the general morphology of each hair was analysed and the expression of laminin 5 and collagen IV, two constituents of the basal membrane, was evaluated. Moreover, immunolabeling with anti-Ki67 antibodies (nuclear protein expressed in growing cells) was carried out of cells in mitosis in order to establish the mitotic index of follicle structures.
# This study was conducted on cuts of frozen hairs.
# [2] = system: epithelial sheaths of human hair explants; assay: General morphology of hair histological cuts stained with Masson Trichromium (neo-keratinocytes); format: cell-based
# Procedure: as §1, §2, §3, §4, §5
# Analysis of the general morphology of histological cuts stained with Masson Trichromium focusing on the area between the opening of the sebaceous glands and the hair bulb.
# Hairs cultured on D0 naturally undergo changes during survival as is observed after an in vivo graft. The restructuring effect of AcSDKP was visualised through the appearance of neo-keratinocytes along the conjunctival sheath which migrate from the bulge and to a lesser extent from the bulb, two regions where stem cells are found. […] This effect leads to clear appearance of neo-keratinocytes along the length of the hair, from the epidermis to the bulb. The structure of the neo-keratinocytes formed in this way is uniform and stratified. It varies as a function of treatment time and AcSDKP concentration. The clearest activity was found on D15 of treatment with AcSDKP at 10^−10 M.
# [3] = system: type IV collagen; assay: Immunolabelling of type IV collagen on frozen hair cuts; format: cell-based, human
# Procedure: as §1, §2, §3
# On D8 and D15 of treatment, six hairs from each batch (untreated control, Minoxidil, +AcSDKP 10^−4 M, +AcSDKP 10^−7 M, +AcSDKP 10^−10 M) were removed and prepared for histological study. […]
# In addition to measurements of the length of each hair, the general morphology of each hair was analysed and the expression of laminin 5 and collagen IV, two constituents of the basal membrane, was evaluated. […]
# Immunolabelling of type IV collagen was carried out on frozen cuts of the control hairs and hairs treated with AcSDKP or Minoxidil in order to quantify this constituent of the basal membrane which separates the dermal compartment from the epithelial compartment.
# [4] = system: keratin 19 (CK19); assay: Immunolabelling of keratin 19 (CK19), epithelial stem cell marker, on frozen hair cuts; format: cell-based, human
# Procedure: as §1, §2, §3, §4, §5
# Immunolabeling of keratin 19 (CK19) was carried out on frozen cuts of control hairs and hairs treated with AcSDKP or Minoxidil in order to evaluate the proportion of undifferentiated primitive cells (or even stem cells) present in the external epithelial sheaths of the hair follicles. […]
# [5] = system: human hair explants; assay: Growth (length) of isolated human hairs maintained in ex vivo survival; format: cell-based
# Procedure: as §1, §2, §3
# Culture mediums containing the compounds to be tested were renewed every three days.
# Hairs were photographed using a microscope and a CCD camera coupled to acquisition software and archiving.
# Each hair was measured on D0, D3, D6, D8, D10, D13 and D15 using a LEICA IM1000 measurement module to give measurements in μm.
# Each hair was photographed and its length evaluated using software giving values in μm.
# [6] = system: laminin 5; assay: Immunolabelling of laminin 5 in hair cuts; format: cell-based, human
# Procedure: Study of the stimulating activity of tetrapeptide AcSDKP on the growth of isolated hairs maintained in a state of ex vivo survival. This study was conducted on 66 human hair explants obtained from scalp-plasty. Hairs comprised of hair follicles were isolated by micro dissection and individually placed in wells (96-well culture plate) and maintained in survival for 15 days under conventional tissue culturing conditions (37° C., 5% CO2) in Williams medium. Tetrapeptide AcSDKP added to the culture medium was tested at three concentrations: 10^−4 M, 10^−7 M and 10^−10 M. Minoxidil (2/1 diamino 6-piperidinopyrimidine 3-oxide) at a concentration of 10^−5 M was used as a positive control. On D8 and D15 of treatment, six hairs from each batch (untreated control, Minoxidil, +AcSDKP 10^−4 M, +AcSDKP 10^−7 M, +AcSDKP 10^−10 M) were removed and prepared for histological study. Three explants from each batch were fixed in ordinary Bouin and the three other hairs were frozen and stored at −80° C. In addition to measurements of the length of each hair, the general morphology of each hair was analysed and the expression of laminin 5 and collagen IV, two constituents of the basal membrane, was evaluated. Moreover, immunolabeling with anti-Ki67 antibodies (nuclear protein expressed in growing cells) was carried out of cells in mitosis in order to establish the mitotic index of follicle structures. Laminin 5, another constituent of the basal membrane, is present in the bulb around the dermal papilla as well as in the median section of hair. […] Nevertheless, expression of laminin 5 was higher on D15 with AcSDKP at 10^−7 M (FIG. 4B).
compound,measurement,setting,value
"CC(=O)N[C@@H](CO)C(=O)N[C@@H](CC(=O)O)C(=O)N[C@@H](CCCCN)C(=O)N1CCC[C@H]1C(=O)O [AcSDKP, CH3CO-Ser-Asp-Lys-Pro-OH] (Ac-SDKP-OH)",Average number of cells in mitosis per mm of hair,"[1]; 10^−4 M, D8",35.4 per mm of hair
same,Average number of cells in mitosis per mm of hair,"[1]; 10^−4 M, D15",23.4 per mm of hair
same,Average number of cells in mitosis per mm of hair,"[1]; 10^−7 M, D8",34 per mm of hair
same,Average number of cells in mitosis per mm of hair,"[1]; 10^−7 M, D15",21.5 per mm of hair
same,Average number of cells in mitosis per mm of hair,"[1]; 10^−10 M, D8",52.6 per mm of hair
same,increase in number of cells in mitosis compared to control hair,[1]; 10^−10 M,+300%
same,Average number of cells in mitosis per mm of hair,"[1]; 10^−10 M, D15",29.3 per mm of hair
same,number of cells in mitosis in treated hair compared to control hair,"[1]; three concentrations tested (10^−4 M, 10^−7 M, 10^−10 M)",significantly increases
same,thickness of neo-keratinocyte structure,"[2]; 10^−4 M, 10^−7 M and especially 10^−10 M, D15",increasingly thicker
same,adhesion of epithelial sheaths to collagen,"[2]; 10^−4 M, D8",more or less detached
same,neo-keratinocyte sites,"[2]; 10^−4 M, D8",absent
same,adhesion of epithelium to the underlying collagen,"[2]; two active concentrations (10^−7 M and 10^−10 M), D8",adheres fully
same,increase in collagen levels,"[3]; 10^−10 M, D8 and D15",all the more marked
same,collagen IV in the bulb and median section of hair,"[3]; three concentrations tested, as of D8 of treatment",very clear increase
same,increase in CK19 levels,"[4]; 10^−10 M, D8 and D15 of treatment",maximal
same,expression of CK19 compared to control hair and to hair treated with Minoxidil,[4]; hair kept in survival in the presence of the tetrapeptide,significantly greater
same,hair growth (length of hair),"[5]; AcSDKP 10^−10 M in culture medium, D15 of treatment",significantly stimulates hair growth
same,hair growth (difference in the hair shafts),"[5]; AcSDKP at higher concentrations (10^−4 M, 10^−7 M), D15",no significant difference
same,expression of laminin 5,"[6]; 10^−7 M, D15",higher
same,laminin 5 effect in the median zone of hair,"[6]; 10^−10 M, D8 of treatment",considerably more marked
same,level of laminin 5 in hair structures,[6]; following exposure of hair to AcSDKP,significant increase
"Nc1cc(N2CCCCC2)nc(N)[n+]1[O-] [Minoxidil, 2/1 diamino 6-piperidinopyrimidine 3-oxide, reference compound]",Average number of cells in mitosis per mm of hair,"[1]; 10^−5 M, D8",18.5 per mm of hair
same,increase in number of cells in mitosis compared to control hair,[1]; 10^−5 M,+38%
same,Average number of cells in mitosis per mm of hair,"[1]; 10^−5 M, D15",23.3 per mm of hair
